Source: patent US6706692B1, “6-deoxy erythromycin derivatives, method for preparing same and use as medicines” (Aventis Pharma S.A., priority 1998, dated 2004)

What was measured:
Experiment in all cases: Method of dilutions in liquid medium (M.I.C.)
Type in all cases: cell-based
Details in all cases: reading after 24 hours, 37° C.
S. pneumoniae 030GR20 = test system: S. pneumoniae 030GR20
Experimental: (§1) A—Method of Dilutions in Liquid Medium A series of tubesis prepared in which the same quantity of nutritive sterile medium is distributed. Increasing quantities of the product to be studied are distributed into each tube, then each tube is sown with a bacterial strain. After incubation for twenty-four hours in a heating chamber at 37° C., the growth inhibition is evaluated by transillumination, which allows the minimal inhibitory concentrations (M.I.C.) to be determined, expressed in micrograms/cm^3. The following results were obtained with the product of the example: (reading after 24 hours)

S. pneumoniae 032UC1 = test system: S. pneumoniae 032UC1
Experimental: as §1

S. pneumoniae 030SJ5i = test system: S. pneumoniae 030SJ5i
Experimental: as §1

E. faecium 02D3HT1 = test system: E. faecium 02D3HT1
Experimental: as §1

S. pneumoniae 030RO1i = test system: S. pneumoniae 030RO1i
Experimental: as §1

[1] = test system: Streptococcus gr;G 02GOGR5
Experimental: as §1

S. agalactiae 02B1HT1 = test system: S. agalactiae 02B1HT1
Experimental: as §1

S. mitis 02MitGR16i = test system: S. mitis 02MitGR16i
Experimental: as §1

S. pneumoniae 030PW23c = test system: S. pneumoniae 030PW23c
Experimental: as §1

S. agalactiae 02B1SJ1c = test system: S. agalactiae 02B1SJ1c
Experimental: as §1

S. mitis 02MitCB1 = test system: S. mitis 02MitCB1
Experimental: as §1

S. aureus 011UC4 = test system: S. aureus 011UC4
Experimental: as §1

E. faecalis 02D2UC1 = test system: E. faecalis 02D2UC1
Experimental: as §1

Q: “3-de[2,6-dideoxy-3-C-methyl-3-0-methyl-alpha-L-ribo-hexopyranosyl)-oxy]-3-oxo-12,11-[oxycarbonyl[[4-[4-(3-pyridinyl)-1H-imidazol-1-yl]-butyl]-imino]]-6,11,12-trideoxy-erythromycin [product of the example]” was tested. Which “minimal inhibitory concentrations (M.I.C.)” value (S. pneumoniae 030GR20) did it give?
A: Its value is 0.600 micrograms/cm^3.

Q: What about the “minimal inhibitory concentrations (M.I.C.)” value (S. pneumoniae 032UC1) of the same substance?
A: Its value is “<=0.02 micrograms/cm^3”.

Q: And the “minimal inhibitory concentrations (M.I.C.)” value (S. pneumoniae 030SJ5i)?
A: The value was 0.600 micrograms/cm^3.

Q: And the “minimal inhibitory concentrations (M.I.C.)” value (E. faecium 02D3HT1)?
A: The value was 0.040 micrograms/cm^3.

Q: And the “minimal inhibitory concentrations (M.I.C.)” value (S. pneumoniae 030RO1i)?
A: Its value is 0.600 micrograms/cm^3.

Q: And the “minimal inhibitory concentrations (M.I.C.)” value [1]?
A: The value was 0.040 micrograms/cm^3.

Q: What about the “minimal inhibitory concentrations (M.I.C.)” value (S. agalactiae 02B1HT1) of the same substance?
A: Its value is “<+0.02 micrograms/cm^3”.

Q: What about the “minimal inhibitory concentrations (M.I.C.)” value (S. mitis 02MitGR16i) of the same substance?
A: The value was 0.300 micrograms/cm^3.

Q: What about the “minimal inhibitory concentrations (M.I.C.)” value (S. pneumoniae 030PW23c) of the same substance?
A: The value was 0.300 micrograms/cm^3.

Q: What about the “minimal inhibitory concentrations (M.I.C.)” value (S. agalactiae 02B1SJ1c) of the same substance?
A: The value was 2.500 micrograms/cm^3.

Q: What about the “minimal inhibitory concentrations (M.I.C.)” value (S. mitis 02MitCB1) of the same substance?
A: The value was 0.040 micrograms/cm^3.

Q: And the “minimal inhibitory concentrations (M.I.C.)” value (S. aureus 011UC4)?
A: The value was 0.300 micrograms/cm^3.

Q: And the “minimal inhibitory concentrations (M.I.C.)” value (E. faecalis 02D2UC1)?
A: Its value is 0.080 micrograms/cm^3.
